Measured values as given in the supplement of paper PMC10307832.

Key:
Test in all cases: relative viability (nuclei count vs DMSO), 5 days (fraction); higher = more cells survive
Ponatinib + Olaparib = compound: Cc1ccc(C(=O)Nc2ccc(CN3CCN(C)CC3)c(C(F)(F)F)c2)cc1C#Cc1cnc2cccnn12 [Ponatinib] + O=C(c1cc(Cc2n[nH]c(=O)c3ccccc23)ccc1F)N1CCN(C(=O)C2CC2)CC1 [Olaparib] (partner 8 µM)
Outline: (§1)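 Lung cancer cell lines in 1536-well plates got either a single drug or a fixed anchor-drug dose together with five library-drug doses (not always all listed) in √10 steps, by pin tool, on the day after seeding. Nuclei were counted after 5 days, and relative viability is the treated-to-vehicle ratio of nuclei counts. Values are medians of duplicate plates.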

Ponatinib + Pemetrexed = compound: Cc1ccc(C(=O)Nc2ccc(CN3CCN(C)CC3)c(C(F)(F)F)c2)cc1C#Cc1cnc2cccnn12 [Ponatinib] + Nc1nc2[nH]cc(CCc3ccc(C(=O)N[C@@H](CCC(=O)O)C(=O)O)cc3)c2c(=O)[nH]1 [Pemetrexed] (partner 0.2 µM)
Outline: as §1

Pazopanib + Vorinostat = compound: Cc1ccc(Nc2nccc(N(C)c3ccc4c(C)n(C)nc4c3)n2)cc1S(N)(=O)=O [Pazopanib] + O=C(CCCCCCC(=O)Nc1ccccc1)NO [Vorinostat] (partner 1 µM)
Outline: as §1

Pazopanib + Pictilisib = compound: Cc1ccc(Nc2nccc(N(C)c3ccc4c(C)n(C)nc4c3)n2)cc1S(N)(=O)=O [Pazopanib] + CS(=O)(=O)N1CCN(Cc2cc3nc(-c4cccc5[nH]ncc45)nc(N4CCOCC4)c3s2)CC1 [Pictilisib] (partner 1 µM)
Outline: as §1

## HCC-366
Ponatinib + Olaparib; first compound 0.002 µM
  relative viability: 0.323
Ponatinib + Olaparib; first compound 0.006325 µM
  relative viability: 0.382
Ponatinib + Olaparib; first compound 0.06325 µM
  relative viability: 0.482
Ponatinib + Olaparib; first compound 0.2 µM
  relative viability: 0.328
Ponatinib + Pemetrexed; first compound 0.002 µM
  relative viability: 0.128
Ponatinib + Pemetrexed; first compound 0.006325 µM
  relative viability: 0.154
Ponatinib + Pemetrexed; first compound 0.06325 µM
  relative viability: 0.191
Ponatinib + Pemetrexed; first compound 0.2 µM
  relative viability: 0.201
Pazopanib + Vorinostat; first compound 0.01 µM
  relative viability: 0.239
Pazopanib + Vorinostat; first compound 0.03162 µM
  relative viability: 0.336
Pazopanib + Vorinostat; first compound 0.1 µM
  relative viability: 0.414
Pazopanib + Vorinostat; first compound 0.3162 µM
  relative viability: 0.379
Pazopanib + Vorinostat; first compound 1 µM
  relative viability: 0.81
Pazopanib + Pictilisib; first compound 0.01 µM
  relative viability: 0.0942
Pazopanib + Pictilisib; first compound 0.03162 µM
  relative viability: 0.155
Pazopanib + Pictilisib; first compound 0.1 µM
  relative viability: 0.116
Pazopanib + Pictilisib; first compound 0.3162 µM
  relative viability: 0.164
Pazopanib + Pictilisib; first compound 1 µM
  relative viability: 0.159

## HCC-827
Ponatinib + Olaparib; first compound 0.002 µM
  relative viability: 0.719
Ponatinib + Olaparib; first compound 0.006325 µM
  relative viability: 0.644
Ponatinib + Olaparib; first compound 0.06325 µM
  relative viability: 0.709
Ponatinib + Olaparib; first compound 0.2 µM
  relative viability: 0.687
Ponatinib + Pemetrexed; first compound 0.002 µM
  relative viability: 0.234
Ponatinib + Pemetrexed; first compound 0.006325 µM
  relative viability: 0.304
Ponatinib + Pemetrexed; first compound 0.06325 µM
  relative viability: 0.288
Ponatinib + Pemetrexed; first compound 0.2 µM
  relative viability: 0.247
Pazopanib + Vorinostat; first compound 0.01 µM
  relative viability: 0.895
Pazopanib + Vorinostat; first compound 0.03162 µM
  relative viability: 0.839
Pazopanib + Vorinostat; first compound 0.1 µM
  relative viability: 0.843
Pazopanib + Vorinostat; first compound 0.3162 µM
  relative viability: 0.922
Pazopanib + Vorinostat; first compound 1 µM
  relative viability: 0.785
Pazopanib + Pictilisib; first compound 0.01 µM
  relative viability: 0.894
Pazopanib + Pictilisib; first compound 0.03162 µM
  relative viability: 1.17
Pazopanib + Pictilisib; first compound 0.1 µM
  relative viability: 1.03
Pazopanib + Pictilisib; first compound 0.3162 µM
  relative viability: 0.946
Pazopanib + Pictilisib; first compound 1 µM
  relative viability: 1.12

## HOP-62
Ponatinib + Olaparib; first compound 0.002 µM
  relative viability: 0.313
Ponatinib + Olaparib; first compound 0.006325 µM
  relative viability: 0.172
Ponatinib + Olaparib; first compound 0.06325 µM
  relative viability: 0.211
Ponatinib + Olaparib; first compound 0.2 µM
  relative viability: 0.355
Ponatinib + Pemetrexed; first compound 0.002 µM
  relative viability: 0.268
Ponatinib + Pemetrexed; first compound 0.006325 µM
  relative viability: 0.33
Ponatinib + Pemetrexed; first compound 0.06325 µM
  relative viability: 0.276
Ponatinib + Pemetrexed; first compound 0.2 µM
  relative viability: 0.304
Pazopanib + Vorinostat; first compound 0.01 µM
  relative viability: 0.494
Pazopanib + Vorinostat; first compound 0.03162 µM
  relative viability: 0.584
Pazopanib + Vorinostat; first compound 0.1 µM
  relative viability: 0.474
Pazopanib + Vorinostat; first compound 0.3162 µM
  relative viability: 0.656
Pazopanib + Vorinostat; first compound 1 µM
  relative viability: 0.496
Pazopanib + Pictilisib; first compound 0.01 µM
  relative viability: 0.479
Pazopanib + Pictilisib; first compound 0.03162 µM
  relative viability: 0.768
Pazopanib + Pictilisib; first compound 0.3162 µM
  relative viability: 0.874
Pazopanib + Pictilisib; first compound 1 µM
  relative viability: 0.874

## IA-LM
Ponatinib + Olaparib; first compound 0.002 µM
  relative viability: 0.705
Ponatinib + Olaparib; first compound 0.006325 µM
  relative viability: 0.835
Ponatinib + Olaparib; first compound 0.06325 µM
  relative viability: 0.785
Ponatinib + Olaparib; first compound 0.2 µM
  relative viability: 0.646
Pazopanib + Vorinostat; first compound 0.03162 µM
  relative viability: 0.977
Pazopanib + Vorinostat; first compound 0.1 µM
  relative viability: 1.1
Pazopanib + Vorinostat; first compound 0.3162 µM
  relative viability: 0.964
Pazopanib + Vorinostat; first compound 1 µM
  relative viability: 0.945
Pazopanib + Pictilisib; first compound 0.01 µM
  relative viability: 0.368
Pazopanib + Pictilisib; first compound 0.03162 µM
  relative viability: 0.439
Pazopanib + Pictilisib; first compound 0.1 µM
  relative viability: 0.4
Pazopanib + Pictilisib; first compound 0.3162 µM
  relative viability: 0.568
Pazopanib + Pictilisib; first compound 1 µM
  relative viability: 0.524

## LC-2-ad
Ponatinib + Olaparib; first compound 0.002 µM
  relative viability: 0.764
Ponatinib + Olaparib; first compound 0.006325 µM
  relative viability: 0.762
Ponatinib + Olaparib; first compound 0.06325 µM
  relative viability: 0.781
Ponatinib + Olaparib; first compound 0.2 µM
  relative viability: 0.713
Ponatinib + Pemetrexed; first compound 0.002 µM
  relative viability: 0.274
Ponatinib + Pemetrexed; first compound 0.006325 µM
  relative viability: 0.272
Ponatinib + Pemetrexed; first compound 0.06325 µM
  relative viability: 0.296
Ponatinib + Pemetrexed; first compound 0.2 µM
  relative viability: 0.263
Pazopanib + Vorinostat; first compound 0.01 µM
  relative viability: 0.697
Pazopanib + Vorinostat; first compound 0.03162 µM
  relative viability: 0.719
Pazopanib + Vorinostat; first compound 0.1 µM
  relative viability: 0.732
Pazopanib + Vorinostat; first compound 0.3162 µM
  relative viability: 0.771
Pazopanib + Vorinostat; first compound 1 µM
  relative viability: 0.732
Pazopanib + Pictilisib; first compound 0.01 µM
  relative viability: 0.412
Pazopanib + Pictilisib; first compound 0.03162 µM
  relative viability: 0.436
Pazopanib + Pictilisib; first compound 0.1 µM
  relative viability: 0.515
Pazopanib + Pictilisib; first compound 0.3162 µM
  relative viability: 0.196
Pazopanib + Pictilisib; first compound 1 µM
  relative viability: 0.527
